# Key:
# BALB/c mice [1] = assay: Histopathology (H&E) of lung in LPS-induced ALI mice; format: in vivo; conditions: LPS 100 μg IT; kirenol 3, 10, 30 mg/kg IP or dexamethasone 1 mg/kg IP 30 min before LPS; 6 h after LPS; FIG. 1
# Procedure: (§1) BALB/c mice (5-7 weeks old) are obtained from the National Laboratory Animal Center (NLAC) and maintained in the laboratory for a week in order to adapt to the environment. Then experiments are carried out as follows. The mice are divided into three groups. The control group: mice in the group are injected with normal saline by intratracheal injection (IT). The LPS stimulated group: mice in the group are treated with a 50 μL solution containing 100 μg of lipopolysaccharide (LPS) by IT for inducing ALI. The kirenol group: mice are given an intraperitoneal injection (IP) of 3 mg/kg, 10 mg/kg, and 30 mg/kg of kirenol respectively. After 30 minutes, each mouse is treated with 100 μg of LPS by IT. The dexamethasone group: mice are dosed with 1 mg/kg of dexamethasone by IP and then treated with 100 μg of LPS by IT after 30 minutes.
# (§2) The mice in the respective group are killed 6 hours after LPS administration. Then use bronchoalveolar lavage (BAL) to get (Bronchoalveolar lavage fluid (BALF). And perform differential blood count, detect neutrophil activity and measure protein content in BALF. The lung tissue of the mice is used in histopathology examination, analysis of pulmonary edema, lipid peroxidation assay, and antioxidant activity analysis.
# Kirenol used is obtained from ChemFaces (Catalog No. CFN98867) dissolved in Dimethyl sulfoxide (DMSO). […]
# [2] = test system: glutathione peroxidase (GSH); assay: Antioxidant enzyme activity in lung tissue: glutathione peroxidase; format: in vivo, mice; conditions: kirenol 3, 10, 30 mg/kg IP; vs LPS stimulated group; FIG. 8
# Procedure: as §1, §2
# (§3) During acute lung injury, the increasing pulmonary oxidative stress easily leads to lung tissue damage. […]
# BALB/c mice [3] = assay: Protein content in BALF (Bradford assay) in LPS-induced ALI mice; format: in vivo; conditions: kirenol 3, 10, 30 mg/kg IP, FIG. 3
# Procedure: as §1
# (§4) The mice in the respective group are killed 6 hours after LPS administration. […]
# (§5) Polymorphonuclear leucocytes and protein in the capillary flow into the alveoli while alveolar capillary barrier being damaged. Thus the integrity of alveolar capillary barrier can be evaluated by analysis of the content of polymorphonuclear leucocytes and protein in the BALF. […]
# catalase (CAT) = assay: Antioxidant enzyme activity in lung tissue: CAT; format: in vivo, mice; conditions: kirenol 3, 10, 30 mg/kg IP; vs LPS stimulated group; FIG. 7
# Procedure: as §1, §2, §3
# BALB/c mice [4] = assay: Lipid peroxidation (malondialdehyde, MDA) in lung of LPS-induced ALI mice; format: in vivo; conditions: kirenol 3, 10, 30 mg/kg IP; vs LPS stimulated group; FIG. 5
# Procedure: as §1, §4
# For evaluation of lung tissue damage, the amount of malondialdehyde (MDA), the final product of lipid peroxidation in lung, is measured. […] Lastly absorbance of the mixed solution is measured at 532 nm.
# [5] = test system: superoxide dismutase (SOD); assay: Antioxidant enzyme activity in lung tissue: SOD; format: in vivo, mice; conditions: kirenol 3, 10, 30 mg/kg IP; vs LPS stimulated group; FIG. 6
# Procedure: as §1, §2, §3
# BALB/c mice [6] = assay: Neutrophils in BALF (Giemsa stain) in LPS-induced ALI mice; format: in vivo; conditions: kirenol 3, 10, 30 mg/kg IP; vs LPS stimulated group; FIG. 4
# Procedure: as §1, §4, §5
# BALB/c mice [7] = assay: Lung tissue wet/dry ratio (lung edema) in LPS-induced ALI mice; format: in vivo; conditions: kirenol 3, 10, 30 mg/kg IP, FIG. 2
# Procedure: as §1, §2
# The mice are killed and lung tissue is obtained. […] Thereby the wet/dry ratio of the lung tissue is calculated by dividing the wet weight by the dry weight.
smiles,measurement,setting,value
C[C@@]1(CO)C[C@@H](O)C[C@@]2(C)[C@@H]3CC[C@](C)([C@@H](O)CO)C=C3CC[C@H]12 [Kirenol],hyaline membrane formation in lung,BALB/c mice [1],reduces hyaline membrane formation in lung and immune cell infiltration induced by LPS in a dose dependent manner
same,immune cell infiltration in lung,BALB/c mice [1],reduces hyaline membrane formation in lung and immune cell infiltration induced by LPS in a dose dependent manner
same,activity of GSH (glutathione peroxidase) in lung,[2],increased in a dose dependent manner
same,integrity of alveolar capillary barrier,BALB/c mice [3],prevents damage to the integrity of alveolar capillary barrier caused by LPS in a dose dependent way
same,protein content in BALF,BALB/c mice [3]; vs LPS stimulated group,lowered
same,activity of CAT in lung,catalase (CAT),increased in a dose dependent manner
same,lipid peroxidation in lung (MDA),BALB/c mice [4],prevents lipid peroxidation caused by LPS in a dose dependent manner
same,activity of SOD in lung,[5],increased in a dose dependent manner
same,number of neutrophils / neutrophil infiltration in alveolar cavity,BALB/c mice [6],reduces neutrophil infiltration in alveolar cavity caused by LPS in a dose dependent manner
same,lung edema induced by LPS,BALB/c mice [7],improves lung edema induced by LPS in a dose dependent fashion
same,wet/dry ratio of the lung tissue,BALB/c mice [7]; vs LPS stimulated group,reduced

# Reference: patent US20200323790A1, “METHOD FOR TREATMENT OF ACUTE LUNG INJURY BY USE OF KIRENOL” (CHUNG SHAN MEDICAL UNIVERSITY, priority 2019, published 2020)
